pIC50: −log10 of the molar value.
Target: T1, LRRK2 WT (Homo sapiens, UniProt Q5S007)
T1 construct: purchased Life Technologies PR8604B
Test: LRRK2 Kinase Activity Assay (LanthaScreen TR-FRET), wild type
Assay type: biochemical
Settings: recombinant wild type LRRK2, 25 μM ATP, 400 nM LRRKtide, 60 min; class symbols
Method: LRRK2 kinase activity was measured using a LanthaScreen™ Kinase Activity Assay from ThermoFisher Scientific. Recombinant wild type or G2019S-LRRK2 protein (Life Technologies, PR8604B or PV4881, respectively), was incubated with a fluorescein-labeled peptide substrate called LRRKtide that is based upon ezrin/radixin/moesin (ERM) (Life Technologies, PV4901) in the presence of ATP and serially diluted compound. […] Compound-dependent inhibition of the TR-FRET signal was used to generate a concentration-response curve for IC50 determination.
After 60 min incubation at room temperature, the reaction was stopped by addition of 10 μL of 2×stop solution containing a final concentration of 2 nM anti-pERM antibody and 10 mM EDTA.

T1 sequence (Q5S007 whole entry): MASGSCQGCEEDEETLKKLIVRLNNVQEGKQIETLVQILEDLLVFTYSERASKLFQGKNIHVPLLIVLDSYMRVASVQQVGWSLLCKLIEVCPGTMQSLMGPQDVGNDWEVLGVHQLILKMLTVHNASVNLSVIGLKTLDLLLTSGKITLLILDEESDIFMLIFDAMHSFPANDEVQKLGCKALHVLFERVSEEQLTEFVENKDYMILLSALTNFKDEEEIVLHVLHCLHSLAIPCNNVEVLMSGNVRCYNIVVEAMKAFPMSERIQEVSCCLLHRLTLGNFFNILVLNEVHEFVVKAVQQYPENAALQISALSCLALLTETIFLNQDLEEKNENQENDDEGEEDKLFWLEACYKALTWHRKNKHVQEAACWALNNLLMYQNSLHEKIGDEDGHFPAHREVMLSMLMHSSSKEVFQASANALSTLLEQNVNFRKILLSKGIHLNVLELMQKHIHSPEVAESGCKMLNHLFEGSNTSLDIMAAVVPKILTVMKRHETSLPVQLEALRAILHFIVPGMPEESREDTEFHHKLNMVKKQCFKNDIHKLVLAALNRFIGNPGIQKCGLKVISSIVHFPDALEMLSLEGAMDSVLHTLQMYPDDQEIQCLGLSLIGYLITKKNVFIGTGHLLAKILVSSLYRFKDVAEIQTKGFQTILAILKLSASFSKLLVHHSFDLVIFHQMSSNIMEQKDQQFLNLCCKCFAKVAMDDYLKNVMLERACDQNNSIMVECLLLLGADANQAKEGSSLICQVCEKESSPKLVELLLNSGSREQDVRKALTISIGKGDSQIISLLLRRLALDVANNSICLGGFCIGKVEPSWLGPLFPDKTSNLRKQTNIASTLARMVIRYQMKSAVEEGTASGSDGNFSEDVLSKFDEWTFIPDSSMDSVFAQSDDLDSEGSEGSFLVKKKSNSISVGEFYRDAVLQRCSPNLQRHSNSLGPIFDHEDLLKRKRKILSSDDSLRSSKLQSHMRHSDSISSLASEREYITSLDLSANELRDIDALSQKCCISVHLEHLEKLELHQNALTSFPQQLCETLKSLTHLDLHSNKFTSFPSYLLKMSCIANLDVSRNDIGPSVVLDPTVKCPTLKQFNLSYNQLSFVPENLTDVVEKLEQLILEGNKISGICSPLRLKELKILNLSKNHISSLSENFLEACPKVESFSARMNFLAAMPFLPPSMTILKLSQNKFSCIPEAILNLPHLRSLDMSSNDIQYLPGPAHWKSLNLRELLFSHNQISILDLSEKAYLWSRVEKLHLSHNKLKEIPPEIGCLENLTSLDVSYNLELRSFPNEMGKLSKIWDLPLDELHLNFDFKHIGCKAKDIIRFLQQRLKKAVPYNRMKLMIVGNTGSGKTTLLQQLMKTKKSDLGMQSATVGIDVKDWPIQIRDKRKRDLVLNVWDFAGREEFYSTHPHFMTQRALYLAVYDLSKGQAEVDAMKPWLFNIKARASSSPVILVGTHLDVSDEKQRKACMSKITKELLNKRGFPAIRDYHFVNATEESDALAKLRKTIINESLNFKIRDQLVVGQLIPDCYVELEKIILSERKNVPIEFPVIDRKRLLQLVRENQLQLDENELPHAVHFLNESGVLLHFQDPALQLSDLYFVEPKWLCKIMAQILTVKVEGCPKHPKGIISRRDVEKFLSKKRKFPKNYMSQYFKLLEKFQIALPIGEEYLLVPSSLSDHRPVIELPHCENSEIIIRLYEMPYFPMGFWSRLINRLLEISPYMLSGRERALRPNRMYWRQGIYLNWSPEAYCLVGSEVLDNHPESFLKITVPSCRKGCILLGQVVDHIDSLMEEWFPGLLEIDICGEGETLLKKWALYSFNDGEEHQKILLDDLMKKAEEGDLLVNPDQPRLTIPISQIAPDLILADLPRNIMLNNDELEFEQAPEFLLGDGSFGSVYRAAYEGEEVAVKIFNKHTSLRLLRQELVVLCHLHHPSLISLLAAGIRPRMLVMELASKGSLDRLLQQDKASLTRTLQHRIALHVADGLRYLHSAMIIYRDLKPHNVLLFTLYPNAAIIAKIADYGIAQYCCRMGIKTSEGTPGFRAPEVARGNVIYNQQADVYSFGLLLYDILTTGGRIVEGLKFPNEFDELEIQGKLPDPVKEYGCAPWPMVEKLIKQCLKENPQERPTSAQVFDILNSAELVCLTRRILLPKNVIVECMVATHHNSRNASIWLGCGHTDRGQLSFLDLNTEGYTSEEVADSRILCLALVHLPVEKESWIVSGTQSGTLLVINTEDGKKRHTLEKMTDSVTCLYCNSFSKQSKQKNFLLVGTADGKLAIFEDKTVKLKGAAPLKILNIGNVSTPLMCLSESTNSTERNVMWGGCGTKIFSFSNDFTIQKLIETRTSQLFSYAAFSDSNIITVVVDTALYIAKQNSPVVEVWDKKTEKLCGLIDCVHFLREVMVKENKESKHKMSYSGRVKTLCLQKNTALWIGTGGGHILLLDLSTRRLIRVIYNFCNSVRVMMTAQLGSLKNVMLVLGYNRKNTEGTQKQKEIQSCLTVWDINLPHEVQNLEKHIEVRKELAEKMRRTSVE

Row | pIC50 | Compound
1 | > 7.00 | N#Cc1cnc2c(c1)CCC[C@@H]2Oc1ccc2[nH]nc(-c3cnco3)c2c1 (single isomer, unassigned) [Example 16, enantiomer 2, 8-((3-(Oxazol-5-yl)-1H-indazol-5-yl)oxy)-5,6,7,8-tetrahydroquinoline-3-carbonitrile]
2 | > 7.00 | N#Cc1ccc2c(c1)CCC[C@@H]2Oc1ccc2[nH]nc(-c3cnco3)c2c1 (single isomer, unassigned) [Example 18, enantiomer 2, 5-((3-(Oxazol-5-yl)-1H-indazol-5-yl)oxy)-5,6,7,8-tetrahydronaphthalene-2-carbonitrile]
3 | > 7.00 | Cc1c(C#N)ccc2c1CC[C@@H]2Oc1ccc2[nH]nc(-c3cnco3)c2c1 (single isomer, unassigned) [Example 22, enantiomer 2, 4-Methyl-1-((3-(oxazol-5-yl)-1H-indazol-5-yl)oxy)-2,3-dihydro-1H-indene-5-carbonitrile]
4 | > 7.00 | N#Cc1cc2c(cc1F)[C@@H](Oc1ccc3[nH]nc(-c4cnco4)c3c1)CC2 (single isomer, unassigned) [Example 23, enantiomer 2, 6-Fluoro-1-((3-(oxazol-5-yl)-1H-indazol-5-yl)oxy)-2,3-dihydro-1H-indene-5-carbonitrile]
5 | > 7.00 | N#Cc1ccc2c(c1F)CC[C@@H]2Oc1ccc2[nH]nc(-c3cnco3)c2c1 (single isomer, unassigned) [Example 24, enantiomer 2, 4-Fluoro-1-((3-(oxazol-5-yl)-1H-indazol-5-yl)oxy)-2,3-dihydro-1H-indene-5-carbonitrile]
6 | > 7.00 | N#Cc1cc2c(cc1F)[C@@H](Nc1ccc3[nH]nc(-c4cnco4)c3c1)CC2 (single isomer, unassigned) [Example 25, enantiomer 2, 6-Fluoro-1-((3-(oxazol-5-yl)-1H-indazol-5-yl)amino)-2,3-dihydro-1H-indene-5-carbonitrile]
7 | > 7.00 | N#Cc1ccc2c(c1F)CC[C@@H]2Nc1ccc2[nH]nc(-c3cnco3)c2c1 (single isomer, unassigned) [Example 26, enantiomer 2, 4-Fluoro-1-((3-(oxazol-5-yl)-1H-indazol-5-yl)amino)-2,3-dihydro-1H-indene-5-carbonitrile]
8 | > 7.00 | Cc1c(C#N)ccc2c1CC[C@@H]2Nc1ccc2[nH]nc(-c3cnco3)c2c1 (single isomer, unassigned) [Example 27, enantiomer 2, 4-methyl-1-((3-(oxazol-5-yl)-1H-indazol-5-yl)amino)-2,3-dihydro-1H-indene-5-carbonitrile]
9 | > 7.00 | Cc1cc2c(cc1C#N)CC[C@@H]2Nc1ccc2[nH]nc(-c3cnco3)c2c1 (single isomer, unassigned) [Example 28, enantiomer 2, 6-Methyl-1-((3-(oxazol-5-yl)-1H-indazol-5-yl)amino)-2,3-dihydro-1H-indene-5-carbonitrile]
10 | > 7.00 | Cc1cc2c(cc1C#N)CC[C@H]2Oc1ccc2[nH]nc(-c3cnco3)c2c1 (single isomer, unassigned) [Example 29, enantiomer 2, 6-Methyl-1-((3-(oxazol-5-yl)-1H-indazol-5-yl)oxy)-2,3-dihydro-1H-indene-5-carbonitrile]
11 | > 7.00 | N#Cc1cccc2c1[C@@H](Oc1ccc3[nH]nc(-c4cnco4)c3c1)CC2 (single isomer, unassigned) [Example 37, enantiomer 2, 3-((3-(Oxazol-5-yl)-1H-indazol-5-yl)oxy)-2,3-dihydro-1H-indene-4-carbonitrile]
12 | > 7.00 | N#Cc1ccc2c(c1)CCC[C@@H]2Oc1ccc2[nH]nc(-c3ccnc(N4CCOCC4)c3)c2c1 (single isomer, unassigned) [Example 39, enantiomer 2, 5-((3-(2-Morpholinopyridin-4-yl)-1H-indazol-5-yl)oxy)-5,6,7,8-tetrahydronaphthalene-2-carbonitrile]
13 | > 7.00 | COc1cc(-c2n[nH]c3ccc(N[C@H]4CCc5cc(C#N)ccc54)cc23)ccn1 (single isomer, unassigned) [Example 40, enantiomer 2, 1-((3-(2-Methoxypyridin-4-yl)-1H-indazol-5-yl)amino)-2,3-dihydro-1H-indene-5-carbonitrile]
14 | > 7.00 | N#Cc1cc2c(nn1)[C@@H](Oc1ccc3[nH]nc(-c4cnco4)c3c1)CC2 (single isomer, unassigned) [Example 41, enantiomer 2, 7-((3-(Oxazol-5-yl)-1H-indazol-5-yl)oxy)-6,7-dihydro-5H-cyclopenta[c]pyridazine-3-carbonitrile]
15 | > 7.00 | N#Cc1ccc2c(c1)CC(F)(F)[C@@H]2Nc1ccc2[nH]nc(-c3cnco3)c2c1 (single isomer, unassigned) [Example 42, enantiomer 2, 2,2-Difluoro-1-((3-(oxazol-5-yl)-1H-indazol-5-yl)amino)-2,3-dihydro-1H-indene-5-carbonitrile]
16 | > 7.00 | N#Cc1cnc2c(c1)C1CC1[C@@H]2Nc1ccc2[nH]nc(-c3cnco3)c2c1 (single isomer, unassigned) [Example 48, enantiomer 2, 6-((3-(Oxazol-5-yl)-1H-indazol-5-yl)amino)-4b,5,5a,6-tetrahydrocyclopropa[3,4]cyclopenta[1,2-b]pyridine-3-carbonitrile]
17 | > 7.00 | N#Cc1ccc2c(c1F)CC[C@@H]2Oc1ccc2[nH]nc(-c3cnn(C(F)F)c3)c2c1 (single isomer, unassigned) [Example 51, enantiomer 2, 1-((3-(1-(Difluoromethyl)-1H-pyrazol-4-yl)-1H-indazol-5-yl)oxy)-4-fluoro-2,3-dihydro-1H-indene-5-carbonitrile]
18 | > 7.00 | Cc1c(C#N)ccc2c1CC[C@@H]2Nc1ccc2[nH]nc(-c3cnn(C(F)F)c3)c2c1 (single isomer, unassigned) [Example 52, enantiomer 2, 1-((3-(1-(Difluoromethyl)-1H-pyrazol-4-yl)-1H-indazol-5-yl)amino)-4-methyl-2,3-dihydro-1H-indene-5-carbonitrile]
19 | > 7.00 | COc1c(C#N)ccc2c1CCC[C@@H]2Nc1ccc2[nH]nc(-c3cnco3)c2c1 (single isomer, unassigned) [Example 101, enantiomer 2, 1-Methoxy-5-{[3-(1,3-oxazol-5-yl)-1H-indazol-5-yl]amino}-5,6,7,8-tetrahydronaphthalene-2-carbonitrile]
20 | > 7.00 | N#Cc1cnc2c(c1)CC[C@@H]2Oc1ccc2[nH]nc(-c3cnco3)c2c1 (single isomer, unassigned) [Example 103, enantiomer 2, 7-((3-(Oxazol-5-yl)-1H-indazol-5-yl)oxy)-6,7-dihydro-5H-cyclopenta[b]pyridine-3-carbonitrile]
21 | > 7.00 | Cc1nc2c(cc1C#N)CCC[C@@H]2Nc1ccc2[nH]nc(-c3cnco3)c2c1 (single isomer, unassigned) [Example 106, enantiomer 2, 2-Methyl-8-((3-(oxazol-5-yl)-1H-indazol-5-yl)amino)-5,6,7,8-tetrahydroquinoline-3-carbonitrile]
22 | > 7.00 | Cc1c(C#N)cnc2c1CC[C@@H]2Nc1ccc2[nH]nc(-c3cnco3)c2c1 (single isomer, unassigned) [Example 108, enantiomer 2, 4-Methyl-7-((3-(oxazol-5-yl)-1H-indazol-5-yl)amino)-6,7-dihydro-5H-cyclopenta[b]pyridine-3-carbonitrile]
23 | > 7.00 | N#Cc1cc2c(nc1Cl)[C@@H](Nc1ccc3[nH]nc(-c4cnco4)c3c1)CCC2 (single isomer, unassigned) [Example 112, enantiomer 2, 2-Chloro-8-((3-(oxazol-5-yl)-1H-indazol-5-yl)amino)-5,6,7,8-tetrahydroquinoline-3-carbonitrile]
24 | > 7.00 | COc1c(C#N)ccc2c1CC[C@@H]2Nc1ccc2[nH]nc(-c3cnco3)c2c1 (single isomer, unassigned) [Example 113, enantiomer 2, 4-Methoxy-1-((3-(oxazol-5-yl)-1H-indazol-5-yl)amino)-2,3-dihydro-1H-indene-5-carbonitrile]
25 | > 7.00 | CCc1cc(-c2n[nH]c3ccc(N[C@H]4CCCc5cc(C#N)ccc54)cc23)ccn1 (single isomer, unassigned) [Example 116, enantiomer 2, 5-((3-(2-Ethylpyridin-4-yl)-1H-indazol-5-yl)amino)-5,6,7,8-tetrahydronaphthalene-2-carbonitrile]
26 | > 7.00 | Cc1c(C#N)ccc2c1CC[C@H]2Nc1ccc2[nH]nc(-c3cnoc3)c2c1 (single isomer, unassigned) [Example 118, enantiomer 2, 1-((3-(Isoxazol-4-yl)-1H-indazol-5-yl)amino)-4-methyl-2,3-dihydro-1H-indene-5-carbonitrile]
27 | > 7.00 | N#Cc1ccc2c(c1)CCC[C@H]2Nc1ccc2[nH]nc(-c3cnco3)c2c1 (single isomer, unassigned) [Example 119, enantiomer 2, 5-((3-(Oxazol-5-yl)-1H-indazol-5-yl)amino)-5,6,7,8-tetrahydronaphthalene-2-carbonitrile]
28 | > 7.00 | N#Cc1cnc2c(c1)CCC[C@H]2Nc1ccc2[nH]nc(-c3cnco3)c2c1 (single isomer, unassigned) [Example 120, enantiomer 2, 8-((3-(Oxazol-5-yl)-1H-indazol-5-yl)amino)-5,6,7,8-tetrahydroquinoline-3-carbonitrile]
29 | > 7.00 | CCc1cc(-c2n[nH]c3ccc(O[C@@H]4CCCc5cc(C#N)cnc54)cc23)ccn1 (single isomer, unassigned) [Example 121, enantiomer 2, 8-((3-(2-Ethylpyridin-4-yl)-1H-indazol-5-yl)oxy)-5,6,7,8-tetrahydroquinoline-3-carbonitrile]

Source: patent US20230148214A1, “INDAZOLES AND AZAINDAZOLES AS LRRK2 INHIBITORS” (ESCAPE Bio, Inc., priority 2020, published 2023)
